From ChEMBL document CHEMBL1909046, “DrugMatrix in vitro pharmacology data”

Columns and labels:
[1] = DRUGMATRIX: Calcium Channel Type L, Phenylalkylamine radioligand binding (ligand: [3H] (-)-Desmethoxyverapamil (D-888)); assay type: cell membranes, Rattus norvegicus, Wistar, Brain, Membrane; details: Not Active = under 50% inhibition at 10 µM
[2] = target: 5-hydroxytryptamine receptor 1B (Rattus norvegicus, UniProt P28564); assay type: cell membranes, Wistar, Cerebral cortex, Membrane; further: in other assays of this panel Not Active means under 50% inhibition at 10 µM
[3] = target: T1, B2 bradykinin receptor (Homo sapiens, UniProt P30411); assay type: cell membranes, Membrane; details: chem-1; further: in other assays of this panel Not Active means under 50% inhibition at 10 µM
T1 sequence (P30411 whole entry): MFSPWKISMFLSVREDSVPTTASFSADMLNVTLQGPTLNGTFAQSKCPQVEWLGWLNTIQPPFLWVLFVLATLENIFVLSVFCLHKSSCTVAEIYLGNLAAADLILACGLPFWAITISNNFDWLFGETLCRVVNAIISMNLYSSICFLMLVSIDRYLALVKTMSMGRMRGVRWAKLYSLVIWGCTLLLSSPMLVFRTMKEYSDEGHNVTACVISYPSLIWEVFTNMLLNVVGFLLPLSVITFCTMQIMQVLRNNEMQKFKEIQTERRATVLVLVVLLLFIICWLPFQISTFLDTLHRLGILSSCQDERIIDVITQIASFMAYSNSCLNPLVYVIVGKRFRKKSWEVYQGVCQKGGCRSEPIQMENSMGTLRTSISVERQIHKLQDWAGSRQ

[4] = target: C-C chemokine receptor type 2 (Homo sapiens, UniProt P41597); assay type: cell membranes, CHO-K1, Membrane; details: cho-k1; further: in other assays of this panel Not Active means under 50% inhibition at 10 µM
[5] = target: T2, Cytochrome P450 2A6 (Homo sapiens, UniProt P11509); details: bti-tn-5b1-4; further: in other assays of this panel Not Active means under 50% inhibition at 10 µM
T2 sequence (P11509 whole entry): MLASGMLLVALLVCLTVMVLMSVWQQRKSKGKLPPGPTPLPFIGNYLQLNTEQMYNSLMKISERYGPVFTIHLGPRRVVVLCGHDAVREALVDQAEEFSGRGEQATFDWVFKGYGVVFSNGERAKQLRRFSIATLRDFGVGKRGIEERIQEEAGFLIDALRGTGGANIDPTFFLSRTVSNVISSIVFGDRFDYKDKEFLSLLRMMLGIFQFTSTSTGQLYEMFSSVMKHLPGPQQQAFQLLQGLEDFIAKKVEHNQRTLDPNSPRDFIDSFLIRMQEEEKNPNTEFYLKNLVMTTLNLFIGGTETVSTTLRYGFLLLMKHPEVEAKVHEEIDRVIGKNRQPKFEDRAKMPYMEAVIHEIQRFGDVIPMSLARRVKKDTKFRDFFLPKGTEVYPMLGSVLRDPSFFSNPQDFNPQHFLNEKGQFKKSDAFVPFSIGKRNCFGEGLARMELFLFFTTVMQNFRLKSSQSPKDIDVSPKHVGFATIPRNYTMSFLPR

[6] = target: C-C chemokine receptor type 5 (Homo sapiens, UniProt P51681); assay type: cell membranes, HEK293, Membrane; details: hek293; further: in other assays of this panel Not Active means under 50% inhibition at 10 µM
Chain of C-C chemokine receptor type 5 (P51681 whole entry): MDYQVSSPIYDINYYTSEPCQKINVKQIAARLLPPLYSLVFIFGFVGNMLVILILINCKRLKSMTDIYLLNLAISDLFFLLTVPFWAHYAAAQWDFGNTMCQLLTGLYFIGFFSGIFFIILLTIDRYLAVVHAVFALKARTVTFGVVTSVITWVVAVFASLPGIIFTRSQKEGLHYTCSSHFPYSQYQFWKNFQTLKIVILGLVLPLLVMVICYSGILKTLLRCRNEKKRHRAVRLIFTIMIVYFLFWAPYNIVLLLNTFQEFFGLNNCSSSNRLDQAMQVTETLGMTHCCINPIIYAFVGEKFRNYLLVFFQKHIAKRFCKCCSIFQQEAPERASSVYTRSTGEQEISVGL

Chain of 5-hydroxytryptamine receptor 1B (P28564 whole entry): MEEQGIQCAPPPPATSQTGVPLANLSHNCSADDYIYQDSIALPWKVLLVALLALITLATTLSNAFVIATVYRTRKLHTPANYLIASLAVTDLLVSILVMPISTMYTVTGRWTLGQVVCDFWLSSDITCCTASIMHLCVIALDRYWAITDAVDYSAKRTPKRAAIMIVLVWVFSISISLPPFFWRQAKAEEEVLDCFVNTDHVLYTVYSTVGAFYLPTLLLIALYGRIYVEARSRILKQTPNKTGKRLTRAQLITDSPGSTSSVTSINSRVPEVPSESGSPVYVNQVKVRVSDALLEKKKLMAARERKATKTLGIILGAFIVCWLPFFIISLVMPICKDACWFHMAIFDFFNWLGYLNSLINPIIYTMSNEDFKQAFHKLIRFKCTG
Chain of C-C chemokine receptor type 2 (P41597 whole entry): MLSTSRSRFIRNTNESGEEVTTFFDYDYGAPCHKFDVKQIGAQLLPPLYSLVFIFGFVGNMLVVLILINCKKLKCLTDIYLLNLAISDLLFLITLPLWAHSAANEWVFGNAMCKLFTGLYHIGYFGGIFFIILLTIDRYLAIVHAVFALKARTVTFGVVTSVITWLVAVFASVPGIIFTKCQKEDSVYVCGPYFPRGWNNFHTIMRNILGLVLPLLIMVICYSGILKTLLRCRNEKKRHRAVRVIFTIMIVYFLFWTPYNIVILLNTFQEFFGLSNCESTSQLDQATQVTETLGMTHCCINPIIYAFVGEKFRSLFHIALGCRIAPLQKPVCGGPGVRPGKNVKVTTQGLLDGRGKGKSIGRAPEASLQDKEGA

Compound | IC50 [1] | Ki [1] | IC50 [2] | IC50 [3] | IC50 [4] | IC50 [5] | Ki [5] | IC50 [6] | IC50 ([1]; read-out: IC50) [nM] | Ki ([1]; read-out: Ki) [nM]
Oc1ccccc1 [PHENOL] | Not Active | Not Active | Not Active | Not Active | Not Active | Not Active | Not Active | Not Active | – | –
COC(=O)Nc1nc2ccc(Sc3ccccc3)cc2[nH]1 [FENBENDAZOLE] | Not Active | Not Active | Not Active | Not Active | Not Active | Not Active | Not Active | Not Active | – | –
Nc1ccc(C(=O)O)c(O)c1 [AMINOSALICYLIC ACID] | Not Active | Not Active | Not Active | Not Active | Not Active | Not Active | Not Active | Not Active | – | –
NC(=O)CN1CCCC1=O | Not Active | Not Active | Not Active | Not Active | Not Active | Not Active | Not Active | Not Active | – | –
O=C(NCCN1CCOCC1)c1ccc(Cl)cc1 [MOCLOBEMIDE] | Not Active | Not Active | Not Active | Not Active | Not Active | Not Active | Not Active | Not Active | – | –
C#C[C@]1(O)CC[C@H]2[C@@H]3CCC4=CC(=O)CC[C@@H]4[C@H]3CC[C@@]21C [NORETHINDRONE] | Not Active | Not Active | Not Active | Not Active | Not Active | Not Active | Not Active | Not Active | – | –
CC(C)(C#N)c1cc(Cn2cncn2)cc(C(C)(C)C#N)c1 [ANASTROZOLE] | Not Active | Not Active | Not Active | Not Active | Not Active | Not Active | Not Active | Not Active | – | –
CC(C)(c1ccc(O)cc1)c1ccc(O)cc1 [BISPHENOL A] | Not Active | Not Active | Not Active | Not Active | Not Active | Not Active | Not Active | Not Active | – | –
C=CCO [ALLYL ALCOHOL] | Not Active | Not Active | Not Active | Not Active | Not Active | Not Active | Not Active | Not Active | – | –
C[C@]12CC[C@@H](O)C[C@@H]1CC[C@@H]1[C@@H]2CC[C@]2(C)C(=O)CC[C@@H]12 [ANDROSTERONE] | Not Active | Not Active | Not Active | Not Active | Not Active | Not Active | Not Active | Not Active | – | –
COc1ccc(Cl)cc1C(=O)NCCc1ccc(S(=O)(=O)NC(=O)NC2CCCCC2)cc1 [GLYBURIDE] | Not Active | Not Active | Not Active | Not Active | Not Active | Not Active | Not Active | Not Active | – | –
CC(CN1c2ccccc2Sc2ccccc21)N(C)C (stereo unspecified) [PROMETHAZINE] | – | – | Not Active | Not Active | Not Active | Not Active | Not Active | Not Active | 866 | 842
